Source: patent publication US20080306073A1, “Antitumor Effect Potentiator, Antitumor Preparation, and Method for Treating Cancer” (priority 2005, published 2008)
Where two headings read alike, the source gives them in different places. Marks after values point to notes of the source that are not given here.

Legend:
[1] = test system: human colon cancer xenograft HCT-15 strain; experiment: Action toward a multidrug-resistant strain (Pharmacological Test Example 3); type: in vivo, male nude mice BALB/c-nu/nu
Description: A fragment measuring about 2 mm cubic fragment of the human colon cancer xenograft HCT-15 strain, which expresses P-glycoprotein in large amounts and is resistant to multiple drugs, was subcutaneously implanted on the backs of male nude mice BALB/c-nu/nu. When the average tumor volume (=0.5×major axis (mm)×minor axis (mm)^2) reached about 200 mm^3, the mice were divided into groups (day 0). A TS-1 preparation as prepared in Pharmacological Test Example 1 was orally administered to the mice once a day in an amount as shown in Table 3 from day 1 for 14 consecutive days. The l-OHP preparation was administered only once into the tail vein on day 1 at 10.0 mg/kg immediately before the administration of the TS-1 preparation. The extent of tumor growth inhibition was calculated as in Pharmacological Test Example 1. Using the relative tumor volumes on day 15, the difference in relative tumor volume between the control group and the drug-administered groups was determined according to a Dunnett's test, and the difference between the one which was given either TS-1 or l-OHP and the one which was given TS-1 and l-OHP in combination was evaluated according to Student's t-test.

[2] = test system: 5-FU-resistant strain of the human colon cancer xenograft KM12C strain; experiment: Action toward a 5-FU-resistant strain (Pharmacological Test Example 2); conditions: TS-1 8.3 mg/kg/day as tegafur po 9 days, l-OHP 8.3 mg/kg iv day 1
Protocol: A fragment measuring about 2 mm cubic fragment of a 5-FU-resistant strain of the human colon cancer xenograft KM12C strain established by the applicant was subcutaneously implanted on the backs of male nude mice BALB/c-nu/nu. When the average tumor volume (=0.5×major axis (mm)×minor axis (mm)^2) reached about 200 mm^3, the mice were divided into groups (day 0). […] The ratio of the tumor volume on day 0 to the tumor volume on day 10 was calculated to obtain a relative tumor volume.

[3] = test system: human colon cancer xenograft COL-1 strain; conditions: TS-1 where given 6.9 mg/kg as tegafur po 14 days; for Relative tumor volume (Mean): day 15/day 0; for Extent of tumor growth inhibition (%): day 15; for Extent of body weight change (%): day 15 vs day 0
Protocol: A fragment measuring about 2 mm cubic fragment of the human colon cancer xenograft COL-1 strain was subcutaneously implanted on the backs of male nude mice BALB/c-nu/nu. When the average tumor volume (=0.5×major axis (mm)×minor axis (mm)^2) reached about 125 mm^3, the mice were divided into groups (day 0).
For the determination of antitumor effect, the ratio of the tumor volume upon grouping (day 0) to the tumor volume on day 15 was calculated to obtain a relative tumor volume. The extent of tumor growth inhibition was determined using the average relative tumor volumes of the drug-administered groups and the control group.
The extent of body weight change between the mice on day 0 and the mice on day 15 was used as an index of systemic toxicity of l-OHP.

[4] = test system: human colon cancer xenograft COL-1 strain; conditions: l-OHP into the tail vein on days 1 and 8
Protocol: A fragment measuring about 2 mm cubic fragment of the human colon cancer xenograft COL-1 strain was subcutaneously implanted on the backs of male nude mice BALB/c-nu/nu. When the average tumor volume (=0.5×major axis (mm)×minor axis (mm)^2) reached about 170 mm^3, the mice were divided into groups (day 0).
For the determination of antitumor effect, the ratio of the tumor volume upon grouping (day 0) to the tumor volume on day 15 was calculated to obtain a relative tumor volume. The extent of tumor growth inhibition was determined using the average relative tumor volumes of the drug-administered groups and the control group. Using the relative tumor volumes on the test day, the statistical significance of the difference in relative tumor volume between the control group and the one which was given the pharmaceutical agents was analyzed according to a Dunnett's test; and the statistical significance of the difference in relative tumor volume between the one which was given TS-1 and l-OHP in combination and the one which was given capecitabine and l-OHP in combination was analyzed according to Student's t-test. The extent of body weight change between the mice on day 0 and the mice on day 15 was used as an index of systemic toxicity of the pharmaceutical preparations.

[5] = test system: human colon cancer xenograft KM20C strain; experiment: Antitumor effect on human colon cancer xenograft KM20C in nude rats (Pharmacological Test Example 1); conditions: TS-1 12 or UFT 24 mg/kg/day as tegafur (+ LV 20) po 14 days, l-OHP 10 mg/kg iv day 1
Description: A tegafur/gimeracil/oteracil potassium compound pharmaceutical agent (tegafur/gimeracil/oteracil potassium molar ratio=1:0.4:1, hereinafter sometimes referred to as TS-1), a tegafur/uracil compound pharmaceutical agent (tegafur/uracil molar ratio=1:4, hereinafter sometimes referred to as UFT), and d,l-calcium folinate were independently dissolved or suspended in 0.5% hydroxypropylmethyl cellulose (HPMC) solutions, and pharmaceutical preparations were formulated so as to allow administration thereof in a final dosage of 10 mL/kg.
l-OHP was dissolved in 5% aqueous glucose solution (Otsuka Glucose, manufactured by Otsuka Pharmaceutical Factory Inc.), thereby giving an l-OHP preparation.
A fragment measuring about 2 mm cubic fragment of the human colon cancer xenograft KM20C strain was subcutaneously implanted on the backs of male nude rats F344/NJcl-rnu. When the average tumor volume (=0.5×major axis (mm)×minor axis (mm)^2) reached about 200 mm^3, the rats were divided into groups (day 0).
The TS-1 preparation or the UFT+LV preparation prepared above was orally administered once a day in amounts presented in Table 1 from the day after grouping (day 1) for 14 consecutive days. The l-OHP preparation was administered into the tail vein on day 1 at 10 mg/kg immediately before the administration of the aforementioned preparations.
The ratio of the tumor volume upon grouping (day 0) to the tumor volume on day 15 was regarded as the relative tumor volume: Tumor volume on day 15/Tumor volume on day 0
The extent of tumor growth inhibition (%) was calculated using the average relative tumor volume of the drug-administered groups and the average relative tumor volume of the control group:
[1−(Relative tumor volume of drug-administered group)/(Relative tumor volume of tumor-bearing control group)]×100 (%)
The difference in body weight between rats on day 0 and rats on day 15 presented as a ratio (extent of body weight change) was used as an index of systemic toxicity of the pharmaceutical preparation: […]

[6] = test system: human colon cancer xenograft COL-1 strain; experiment: Preliminary test: maximum tolerable dose of capecitabine (Pharmacological Test Example 5); type: in vivo, male nude mice BALB/c-nu/nu; conditions: capecitabine po once a day 14 days at 240, 360 or 540 mg/kg with l-OHP 4.2 mg/kg/day iv days 1 and 8
Protocol: A fragment measuring about 2 mm cubic fragment of the human colon cancer xenograft COL-1 strain was subcutaneously implanted on the backs of male nude mice BALB/c-nu/nu. When the average tumor volume (=0.5×major axis (mm)×minor axis (mm)^2) reached about 190 mm^3, the mice were divided into groups (day 0). Capecitabine suspended in 0.5% HPMC solution was orally administered to the mice once a day at 240, 360, or 540 mg/kg from the day after grouping for 14 consecutive days. l-OHP dissolved in 5% aqueous glucose solution was administered into the tail vein on days 1 and 8 at 4.2 mg/kg/day immediately before the administration of the Capecitabine. The difference in body weight between the mice on day 0 and the mice on day 15 presented as a ratio and the occurrence of death were used as indices of systemic toxicity of capecitabine.

[7] = test system: 5-FU decomposition; conditions: compared with uracil; cited from earlier work
[8] = l-OHP 2.9 mg/kg iv days 1 and 8
[9] = l-OHP 3.5 mg/kg iv days 1 and 8
[10] = l-OHP 4.2 mg/kg iv days 1 and 8
[11] = l-OHP 5.0 mg/kg iv days 1 and 8

## O=C([O-])C(=O)[O-].[NH-][C@@H]1CCCC[C@H]1[NH-].[Pt+4] (relative stereo) [l-OHP, cis-oxalate(1R,2R-diaminocyclohexane)platinum(II)]
[1]; day 15/day 0, TS-1 10 mg/kg/day as tegafur po 14 days, l-OHP 10 mg/kg iv once day 1
  Relative tumor volume (Mean): 4.33
[1]; day 15, TS-1 10 mg/kg/day as tegafur po 14 days, l-OHP 10 mg/kg iv once day 1
  Extent of tumor growth inhibition (%): 4.3%
[1]; l-OHP alone, 10 mg/kg iv once day 1
  antitumor effect on the multidrug-resistant tumor (in words): barely shows any antitumor effect
[2]; day 10/day 0
  Relative tumor volume (Mean): 7.97
[2]; day 10
  Extent of tumor growth inhibition (%): 16.1%
[2]; day 10 vs day 0
  Extent of body weight change (%): −8.0%
[3]; [8]
  Relative tumor volume (Mean): 5.06 ^§
  Extent of tumor growth inhibition (%): 11.9%
  Extent of body weight change (%): −18.0%
  Number of dead animal: 0
[3]; [9]
  Relative tumor volume (Mean): 4.54 ^§, *
  Extent of tumor growth inhibition (%): 21.0%
  Extent of body weight change (%): −20.6%
  Number of dead animal: 0
[3]; [10]
  Relative tumor volume (Mean): 4.43 ^§, **
  Extent of tumor growth inhibition (%): 23.0%
  Extent of body weight change (%): −19.0%
  Number of dead animal: 0
[3]; [11]
  Relative tumor volume (Mean): 4.41 ^§, **
  Extent of tumor growth inhibition (%): 23.3%
  Extent of body weight change (%): −16.8%
  Number of dead animal: 0
[4]
  maximum tolerable dose: 4.2 mg/kg/day
[5]; day 15/day 0
  Relative tumor volume (Mean): 4.64
[5]; day 15
  Extent of tumor growth inhibition (%): 20.1%
[5]; day 15 vs day 0
  Extent of body weight change (%): 0.9%

## CCCCCOC(=O)Nc1nc(=O)n([C@@H]2O[C@H](C)[C@@H](O)[C@H]2O)cc1F [capecitabine]
[6]
  maximum tolerable dose at which death due to toxicity is not observed: 360 mg/kg/day

## Oc1cc(O)c(Cl)cn1 [gimeracil, 2,4-dihydroxy-5-chloropyridine]
[7]
  5-FU decomposition inhibitory action relative to that of uracil: about 200 times
